Laboratory results reported in publication doi:10.1101/718940v1 (biorxiv, 2019).
pIC50: −log10 of the molar value.

Target: TENT4B (PAPD5) (Homo sapiens, UniProt Q8NDF8)
Test: ATP depletion polyadenylation assay
Format: biochemical

Chain of TENT4B (PAPD5) (Q8NDF8 whole entry): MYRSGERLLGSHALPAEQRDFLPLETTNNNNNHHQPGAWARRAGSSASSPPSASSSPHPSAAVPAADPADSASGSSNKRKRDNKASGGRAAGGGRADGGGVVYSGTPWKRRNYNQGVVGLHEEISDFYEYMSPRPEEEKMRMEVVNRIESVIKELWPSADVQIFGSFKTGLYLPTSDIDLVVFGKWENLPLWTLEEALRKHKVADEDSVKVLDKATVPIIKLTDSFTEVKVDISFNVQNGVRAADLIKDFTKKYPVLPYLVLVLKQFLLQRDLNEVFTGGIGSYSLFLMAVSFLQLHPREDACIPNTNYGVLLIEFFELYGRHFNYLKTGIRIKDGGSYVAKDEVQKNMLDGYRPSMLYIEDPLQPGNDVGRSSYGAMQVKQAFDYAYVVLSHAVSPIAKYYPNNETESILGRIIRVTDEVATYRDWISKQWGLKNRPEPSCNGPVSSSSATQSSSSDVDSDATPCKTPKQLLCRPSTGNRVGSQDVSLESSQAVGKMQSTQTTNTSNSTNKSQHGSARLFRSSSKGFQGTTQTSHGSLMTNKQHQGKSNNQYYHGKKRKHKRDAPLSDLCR

Row | Compound | pIC50
1 | COCCCOc1cc2c(cc1OC)-c1cc(=O)c(C(=O)O)cn1[C@@H](C(C)C)C2 [RO0321] | 7.12
2 | COCCCOc1cc2c(cc1OC)-c1cc(=O)c(C(=O)O)cn1[C@H](C(C)C)C2 [RG7834] | 8.89
